This assay deals with isolated guinea pig gallbladder. Briefly: Functional activity in isolated guinea pig gallbladder preparation. The assay is classed as cell-based. To be noted: expressed as % CCK-induced maximal response; for activation at 1 µM / activation at 30 µM: Cavia porcellus; for activation at 1 µM: read-out: %Contraction (1 × 10^-6 M); for activation at 30 µM: read-out: % Contraction (3 × 10^-5 M). As for the experimental part: 3. GUINEA PIG GALL BLADDER ASSAY
Gallbladders are removed from guinea pigs sacrificed by cervical dislocation. The isolated gallbladders are cleaned of adherent connective tissue and cut into two rings from each animal (2-4 mm in length). The rings are subsequently suspended in organ chambers containing a physiological salt solution (118.4 mM NaCl, 4.7 mM KCl, 1.2 mM MgSO4, 2.5 mM CaCl2, 1.2 mM KH2 […], 25 mM NaHCO3, 11.1 mM dextrose). The bathing solution is maintained at 37° C. and aerated with 95% O2 /5% CO2. Tissues are connected via gold chains and stainless steel mounting wires to isometric force displacement transducers (Grass, Model FT03 D). Responses are then recorded on a polygraph (Grass, Model 7E).
Rings are gradually stretched (over a 120 min. period) to a basal resting tension of 1 gm which is maintained throughout the experiment. During the basal tension adjustment period, the rings are exposed to acetylcholine (10^-6 M) four times to verify tissue contractility. The tissues are then exposed to a submaximal dose of sulfated CCK-8 (Sigma, 3×10^-9 M). After obtaining a stable response, the tissues are washed out 3 times rapidly and every 5 to 10 minutes for 1 hour to reestablish a stable baseline.
Compounds are dissolved in dimethylsulfoxide ([…]) followed by a concentration-response curve to sulfated CCK-8 (10^-10 to 10^-6 M) in the presence of the highest dose of the test compound. As a final test, ACH (10 mM) is added to induce maximal contraction. A minimum of three determinations of activity are made for each test compound.

In the case of `Cc1ccc(N(C(=O)CN2C(=O)C(Cc3n[nH]c4cc(F)ccc34)C(=O)N(c3ccccc3)c3ccccc32)C(C)C)cc1` (centres unmarked) [Example 60, 2-[3-(6-Fluoro-1H-indazol-3-ylmethyl)-2,4-dioxo-5-phenyl-2,3,4,5,tetrahydro-benzo[b][1,4]diazepin-1-yl]-N-isopropyl-N-p-tolyl-acetamide], where the note is “1 × 10^-6 M test compound”, the activation at 1 µM was determined as 94%. Also, the activation at 30 µM (3 × 10^-5 M test compound) is 81%. Take `COc1ccc(N(C(=O)CN2C(=O)C(Cc3c[nH]c4ccccc34)C(=O)N(c3ccccc3)c3ccccc32)C(C)C)cc1` (centres unmarked) [Example 22, 2-[3-(1H-indol-3-ylmethyl)-2,4-dioxo-5-phenyl-2,3,4,5-tetrahydro-benzo[b][1,4]diazepin-1-yl]-N-isopropyl-N-(4-methoxy-phenyl) acetamide]: the activation at 1 µM (1 × 10^-6 M test compound) came to 61%. Also, the activation at 30 µM (3 × 10^-5 M test compound) was 71%. As to `COc1ccc(N(C(=O)CN2C(=O)C(Cc3n[nH]c4ccccc34)C(=O)N(c3cccnc3)c3ccccc32)C(C)C)cc1` (single isomer, unassigned; (+)) [Example 72, (+)-2-[3-(1H-Indazol-3-ylmethyl)-2,4-dioxo-5-pyridin-3-yl-2,3,4,5-tetrahydrobenzo[b][1,4]diazepin-1-yl]-N-isopropyl-N-(4-methoxyphenyl) acetamide], the “%Contraction (1 × 10^-6 M)” value (1 × 10^-6 M test compound) stood at 104%. The “% Contraction (3 × 10^-5 M)” value (3 × 10^-5 M test compound) came out at 93%. For `CC(C)N(C(=O)CN1C(=O)C(Cc2n[nH]c3ccccc23)C(=O)N(c2ccccc2)c2ccccc21)c1ccccc1` (centres unmarked) [Example 68, 2-[3-(1H-indazol-3-ylmethyl)-2,4-dioxo-5-phenyl-2,3,4,5-tetrahydro-benzo[b][1,4]diazepin-1-yl]-N-isopropyl-N-phenyl-acetamide], the activation at 1 µM (1 × 10^-6 M test compound) stood at 93%. Besides, the activation at 30 µM (3 × 10^-5 M test compound) came to 99%.

With `CC(C)N(C(=O)CN1C(=O)C(C)(CC(=O)Nc2cccc(C(=O)O)c2)C(=O)N(c2ccccc2)c2ccccc21)c1ccccc1` (centres unmarked) [Example 3, 2-[2,4-Dioxo-5-phenyl-3-methyl-3-(3-carboxyphenyl)carbamoylmethyl-2,3,4,5-tetrahydro-benzo[b][1,4]diazepin-1-yl]-N-isopropyl-N-phenyl acetamide], the activation at 1 µM (1 × 10^-6 M test compound) was 75%. Also, under “3 × 10^-5 M test compound”, the activation at 30 µM turned out to be 102%. The like results for `COc1ccc(N(C(=O)CN2C(=O)C(Cc3n[nH]c4ccccc34)(OC)C(=O)N(c3cccnc3)c3ccccc32)C(C)C)cc1` (centres unmarked) [Example 53, 2-[3-(1H-Indazol-3-ylmethyl)-3-methoxy-2,4-dioxo-5-pyridin-3-yl-2,3,4,5-tetrahydro-benzo[b][1,4]diazepin-1-yl]-N-isopropyl-N-(4-methoxy-phenyl)-acetamide] were, in that order, 96% and 103%.

`COCC1(CC(=O)Nc2ccccc2)C(=O)N(CC(=O)N(c2ccc(OC)cc2)C(C)C)c2ccccc2N(c2ccccc2)C1=O` (centres unmarked) [Example 26, N-Isopropyl-2-(3-methoxymethyl-2,4-dioxo-5-phenyl-3-phenylcarbamoylmethyl-2,3,4,5-tetrahydro-benzo[b][1,4]diazepin-1-yl)-N-(4-methoxy-phenyl)-acetamide]: the activation at 1 µM (1 × 10^-6 M test compound) is 91%. In the case of `COc1ccc(N(C(=O)CN2C(=O)C(C)(CC(=O)Nc3ccccc3)C(=O)N(c3ccc(Cl)cc3)c3ccccc32)C(C)C)cc1` (centres unmarked) [Example 41], the activation at 1 µM (1 × 10^-6 M test compound) is 40%.

`COc1ccc(N(C(=O)CN2C(=O)C(Cc3n[nH]c4ccccc34)C(=O)N(c3cccs3)c3ccccc32)C(C)C)cc1` (centres unmarked) [Example 59, 2-[3-(1H-Indazol-3-ylmethyl)-2,4-dioxo-5-thiophen-2-yl-2,3,4,5-tetrahydro-benzo[b][1,4]diazepin-1-yl]-N-isopropyl-N-(4-methoxy-phenyl)-acetamide]: the activation at 1 µM (1 × 10^-6 M test compound) was 100%. Further, where the note is “3 × 10^-5 M test compound”, the activation at 30 µM amounted to 102%.

For `COc1ccc(N(C(=O)CN2C(=O)C(C)(Cc3n[nH]c4ccccc34)C(=O)N(c3cccnc3)c3ccccc32)C(C)C)cc1` (centres unmarked) [Example 74, 2-[3-(1H-Indazol-3-ylmethyl)-3-methyl-2,4-dioxo-5-pyridin-3-yl-2,3,4,5-tetrahydro-benzo[b][1,4]diazepin-1-yl]-N-isopropyl-N-(4-methoxy-phenyl)-acetamide], the activation at 1 µM (1 × 10^-6 M test compound) amounted to 86%. For the same molecule, the activation at 30 µM (3 × 10^-5 M test compound) was 88%.

As to `COc1ccc(N(C(=O)CN2C(=O)C(CC(=O)Nc3ccccc3)(OC)C(=O)N(c3ccccc3)c3ccccc32)C(C)C)cc1` (centres unmarked) [Example 21, N-Isopropyl-2-(3-methoxy-2,4-dioxo-5-phenyl-3-phenylcarbamoylmethyl-2,3,4,5-tetrahydro-benzo[b][1,4]diazepin-1-yl)-N-(4-methoxy-phenyl)-acetamide], the activation at 1 µM (1 × 10^-6 M test compound) was found to be 80%. Moreover, the activation at 30 µM (3 × 10^-5 M test compound) worked out at 90%.

Turning to `CC(C)N(C(=O)CN1C(=O)C(C)(CC(=O)Nc2ccccc2N)C(=O)N(c2ccccc2)c2ccccc21)c1ccccc1` (centres unmarked) [Example 9, 2-[3-(2-Amino-phenylcarbamoylmethyl)-3-methyl-2,4-dioxo-5-phenyl-2,3,4,5-tetrahydro-benzo[b][1,4]diazepin-1-yl]-N-isopropyl-N-phenyl acetamide], where the note is “1 × 10^-6 M test compound”, the activation at 1 µM is 31%. For the molecule `CC(C)N(C(=O)CN1C(=O)C(C)(CCNc2ccccc2)C(=O)N(c2ccccc2)c2ccccc21)c1ccccc1` (centres unmarked) [Example 6, N-Isopropyl-2-[3-methyl-2,4-dioxo-5-phenyl-3-(2-phenylaminoethyl)-2,3,4,5-tetrahydro-benzo[b][1,4]diazepin-1-yl]-N-phenyl acetamide], under “1 × 10^-6 M test compound”, the activation at 1 µM amounted to 7%.

In the case of `CC(C)N(C(=O)CN1C(=O)C(C)(CC(N)=O)C(=O)N(c2ccccc2)c2ccccc21)c1ccccc1` (centres unmarked) [Example 13, 2-[1-(Isopropyl-phenyl-carbamoylmethyl)-3-methyl-2,4-dioxo-5-phenyl-2,3,4,5-tetrahydro-1H-benzo[b][1,4]diazepine-3-yl]acetamide], the activation at 1 µM (1 × 10^-6 M test compound) is 6%. On the same count and under the same terms, then `COc1ccc(N(C(=O)CN2C(=O)C(Cc3coc4ccccc34)C(=O)N(c3ccccc3)c3ccccc32)C(C)C)cc1` (centres unmarked) [Example 32], with 38%. As for `COc1ccc(N(C(=O)CN2C(=O)C(CC(=O)Nc3ccccc3)C(=O)N(c3ccccc3)c3ccccc32)C(C)C)cc1` (centres unmarked) [Example 17, 2-(2,4-dioxo-5-phenyl-3-phenylcarbamoylmethyl-2,3,4,5-tetrahydro-benzo[b][1,4]diazepin-1-yl)-N-isopropyl-N-(4-methoxy-phenyl)-acetamide], the activation at 1 µM (1 × 10^-6 M test compound) is 48%. Also, the activation at 30 µM (3 × 10^-5 M test compound) stood at 55%.

As for `COc1ccc(N(C(=O)CN2C(=O)C(Cc3n[nH]c4ccccc34)C(=O)N(c3cccnc3)c3cc(F)ccc32)C(C)C)cc1` (centres unmarked) [Example 66, 2-[7-Fluoro-3-(1H-indazol-3-ylmethyl)-2,4-dioxo-5-pyridin-3-yl-2,3,4,5-tetrahydro-benzo[b][1,4]diazepin-1-yl]-N-isopropyl-N-(4-methoxy-phenyl)-acetamide], the activation at 1 µM (1 × 10^-6 M test compound) was 97%. The activation at 30 µM (3 × 10^-5 M test compound) was determined as 116%. Consider `CC(C)N(C(=O)CN1C(=O)C(Cc2n[nH]c3ccccc23)C(=O)N(c2cccnc2)c2ccccc21)c1ccccc1` (centres unmarked) [Example 83, 2-[3-(1H-Indazol-3-ylmethyl)-2,4-dioxo-5-pyridin-3-yl-2,3,4,5-tetrahydrobenzo[b][1,4]diazepin-1-yl]-N-isopropyl-N-phenyl acetamide], for which the activation at 1 µM (1 × 10^-6 M test compound) stood at 85%. Moreover, the activation at 30 µM (3 × 10^-5 M test compound) was 97%. The like results for `CC(C)(C)N(C(=O)CN1C(=O)C(Cc2n[nH]c3ccccc23)C(=O)N(c2ccccc2)c2ccccc21)c1ccccc1` (centres unmarked) [Example 65, N-tert-Butyl-2-[3-(1H-indazol-3-ylmethyl)-2,4-dioxo-5-phenyl-2,3,4,5,tetrahydro-benzo[b][1,4]diazepin-1-yl]-N-phenyl-acetamide] were, in that order, 88% and 93%. For the molecule `COc1ccc(N(C(=O)CN2C(=O)C(Cc3n[nH]c4ccccc34)C(=O)N(c3cccc(F)c3)c3ccccc32)C(C)C)cc1` (centres unmarked) [Example 81, 2-[5-(3-Fluoro-phenyl)-3-(1H-indazol-3-ylmethyl)-2,4-dioxo-2,3,4,5-tetrahydro-benzo[b][1,4]diazepin-1-yl]-N-isopropyl-N-(4-methoxy-phenyl)-acetamide], the activation at 1 µM (1 × 10^-6 M test compound) came out at 97%. The activation at 30 µM (3 × 10^-5 M test compound) worked out at 96%.

`COc1ccc(N(C(=O)CN2C(=O)C(Cc3cc(C)n[nH]3)C(=O)N(c3ccccc3)c3ccccc32)C(C)C)cc1` (centres unmarked) [Example 55, N-Isopropyl-N-(4-methoxy-phenyl)-2-[3-(5-methyl-2H-pyrazol-3ylmethyl)-2,4-dioxo-5-phenyl-2,3,4,5-tetrahydro-benzo[b][1,4]diazepin-1-yl]-acetamide]: the activation at 1 µM (1 × 10^-6 M test compound) was 21%.

For the origin of these results see US5859007A, “CCK or gastrin modulating benzo [b][1,4] diazepines derivatives” (Glaxo Wellcome Inc., priority 1994, dated 1999).
